Data from patent US9656953B2, “Inhibition of cell proliferation” (University of South Florida, priority 2005, dated 2017).
Entries after “also recorded” stand apart in the source; their conditions may differ.

Key:
[1] = target: T1, Rb:Raf-1 binding (Homo sapiens, UniProt P04049+P06400); assay: GST-Rb/GST-Raf-1 ELISA
T1 construct: a glutathione S-transferase (GST) Raf-1 (1-149aa) overnight at 4° C; made in house
Procedure: In vitro library screening assays. Enzyme Linked ImmunoSorbent Assay (ELISA) 96-well plates were coated with 1 μg/mL of a glutathione S-transferase (GST) Raf-1 (1-149aa) overnight at 4° C. Subsequently the plates were blocked and GST Rb at 20 μg/mL was rotated at room temperature (RT) for 30 minutes in the presence or absence of the compounds at 20 micromolar (μM). GST-Rb +/− compounds were then added to the plate and incubated for 90 minutes (min) at 37° C. The amount of Rb bound to Raf-1 was detected by Rb polyclonal antibody (Santa Cruz Biotechnology, Santa Cruz, Calif.) 1:1000 incubated for 60 min at 37° C. Donkey-anti-rabbit-IgG-HRP (1:10,000) was added to the plate and incubated at 37° C. for 60 minutes. The color was developed with orthophenylenediamine (Sigma, St. Louis, Mo.) and the reaction was terminated with 3 molar (M) H2SO4. Absorbance was read at 490 nanometers (nm). To determine disruption of Rb to E2F1, Phb, or HDAC1 the above protocol was used with the exception of coating GST Rb on the ELISA plate and adding the drugs in the presence or absence of GST E2F1, Phb, or HDAC1. […] Prohibitin monoclonal antibody was used at 1:1000 to detect the amount of Rb bound to Prohibitin. For disruption of MEK-Raf-1 binding ELISAs, Raf-1 1 microgram/milliliter (μg/mL) was coated on the plate and GST-MEK (20 μg/mL) was incubated +/− the compounds for 30 minutes at room temperature. Mek1 polyclonal antibody was used at 1:1000 to detect the binding of Raf-1 to Mek1. The IC50 concentrations for the Rb:Raf-1 inhibitors were determined by plotting with Origin 7.5 software (Origin, Northampton, Mass.).
A screen was developed to identify small molecule inhibitors of the Rb:Raf-1 interaction. A diversity set, comprising 1981 compounds (National Cancer Institute, Bethesda, Md.) was examined using a glutathione S-transferase-retinoblastoma/glutathione S-transferase-Raf-1 kinase Enzyme-Linked ImmunoSorbent Assay screen (GST-Rb/GST-Raf-1 ELISA).

[2] = target: T2, Rb-E2F1 (Homo sapiens, UniProt P06400+Q01094); assay: GST ELISA, Rb-E2F1 binding; details: 20 μM
T2 construct: made in house
Description: In vitro library screening assays. […] Absorbance was read at 490 nanometers (nm).

[3] = test system: Human aortic endothelial cells (HAECs); assay: Matrigel angiogenic tubule formation; assay type: cell-based; details: 20 μM
Procedure: Matrigel assays. […] A total of 100 μl of thawed Matrigel was added to 96-well tissue culture plates, followed by incubation at 37° C. for 60 minutes to allow polymerization. […] Capillary tube formation assessed by using a Leica DMIL phase contrast microscope.
An experiment was performed to determine whether angiogenic tubule formation could be inhibited by the disclosed compounds.

[4] = target: binding of Raf-1 to GST Rb beads (Homo sapiens, UniProt P04049+P06400); assay: GST pull-down, U937 lysates; details: 20 μM, asynchronous U937 lysates, western blotting
Procedure: First, 200 micrograms (μg) of U937 asynchronous lysates were pre-incubated with 10 μM of the indicated drugs or 1 μM of the Raf-1 peptide for 30 minutes at 4° C. Next, 200 μg of the U937 lysates were incubated with glutathione beads carrying an equal amount of the GST fusion proteins in 2001 of protein binding buffer (20 mM Tris [pH 7.5], 50 mM KCL, 0.5 mM EDTA, 1 mM dithiothreitol, 0.5% NP-40, 3 mg of bovine serum albumin/mL) at 4° C. for 2 h.
Asynchronous U937 lysates were incubated with GST-Rb beads in the presence or absence of the selected compounds or an 8 amino acid Raf-1 peptide and the binding of Raf-1 assessed by western blotting.

[5] = target: binding of Raf-1 to Rb in U937 cells (Homo sapiens, UniProt P04049+P06400); assay: Immunoprecipitation-Western blot, serum stimulated U937 cells; details: U937 cells serum stimulated 2 hours, 20 μM
binding of Raf-1 to Rb in U937 cells, sequence (P06400 whole entry): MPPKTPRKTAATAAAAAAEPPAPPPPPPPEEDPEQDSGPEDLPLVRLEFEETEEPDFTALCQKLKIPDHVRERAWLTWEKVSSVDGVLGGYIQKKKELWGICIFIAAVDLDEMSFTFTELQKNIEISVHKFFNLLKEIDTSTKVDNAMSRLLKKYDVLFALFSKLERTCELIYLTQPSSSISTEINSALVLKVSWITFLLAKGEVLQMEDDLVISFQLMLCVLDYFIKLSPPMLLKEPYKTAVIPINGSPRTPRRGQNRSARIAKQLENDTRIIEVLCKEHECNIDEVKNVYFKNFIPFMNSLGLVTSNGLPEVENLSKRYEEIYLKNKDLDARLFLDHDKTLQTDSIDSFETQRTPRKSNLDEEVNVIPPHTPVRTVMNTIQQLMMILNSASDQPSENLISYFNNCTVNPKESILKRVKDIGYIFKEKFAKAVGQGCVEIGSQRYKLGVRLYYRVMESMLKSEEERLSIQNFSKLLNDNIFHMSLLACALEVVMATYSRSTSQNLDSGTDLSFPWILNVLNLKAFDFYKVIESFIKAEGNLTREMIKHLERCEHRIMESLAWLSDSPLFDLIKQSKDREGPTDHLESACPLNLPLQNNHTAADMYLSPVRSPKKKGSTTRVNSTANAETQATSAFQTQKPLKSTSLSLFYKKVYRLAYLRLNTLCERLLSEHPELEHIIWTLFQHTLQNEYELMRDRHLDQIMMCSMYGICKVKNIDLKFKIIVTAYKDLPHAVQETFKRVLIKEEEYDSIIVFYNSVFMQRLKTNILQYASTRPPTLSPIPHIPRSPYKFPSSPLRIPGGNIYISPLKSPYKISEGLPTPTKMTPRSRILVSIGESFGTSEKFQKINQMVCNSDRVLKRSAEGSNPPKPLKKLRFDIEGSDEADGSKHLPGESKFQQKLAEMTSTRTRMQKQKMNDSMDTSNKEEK
binding of Raf-1 to Rb in U937 cells, sequence (P04049 whole entry): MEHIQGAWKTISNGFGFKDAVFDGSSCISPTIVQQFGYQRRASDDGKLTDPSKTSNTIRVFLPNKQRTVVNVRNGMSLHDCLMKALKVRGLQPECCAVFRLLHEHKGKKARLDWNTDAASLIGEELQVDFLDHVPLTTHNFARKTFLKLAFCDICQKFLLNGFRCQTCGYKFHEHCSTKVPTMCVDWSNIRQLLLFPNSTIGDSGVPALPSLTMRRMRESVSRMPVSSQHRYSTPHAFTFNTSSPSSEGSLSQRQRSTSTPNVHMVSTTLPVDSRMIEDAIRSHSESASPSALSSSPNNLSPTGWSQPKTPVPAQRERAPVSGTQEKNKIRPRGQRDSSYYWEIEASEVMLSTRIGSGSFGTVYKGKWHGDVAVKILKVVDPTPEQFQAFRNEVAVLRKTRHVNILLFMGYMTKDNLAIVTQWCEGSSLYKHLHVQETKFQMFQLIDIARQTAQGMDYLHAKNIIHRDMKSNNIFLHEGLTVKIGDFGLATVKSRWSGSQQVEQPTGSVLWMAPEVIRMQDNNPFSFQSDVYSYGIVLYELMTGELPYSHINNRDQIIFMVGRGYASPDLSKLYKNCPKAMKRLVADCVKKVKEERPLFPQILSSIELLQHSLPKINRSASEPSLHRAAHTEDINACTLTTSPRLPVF
Procedure: Lysate preparation, pmmunoprecipitation, and pestern plotting. Lysates from cells treated with different agents were prepared by NP-40 lysis as described earlier (Wang 1998). […] Physical interaction between proteins in vivo was analyzed by immunoprecipitation—Western blot analyses with 200 μg of lysate with 1 μg of the indicated antibody as previously described (Wang 1998). Polyclonal E2F1 and Cyclin D were obtained from Santa Cruz Biotechnology. Monoclonal Rb and Raf-1 were supplied by BD Transduction laboratories (San Jose, Calif.). Polyclonal antibodies to phospho-Rb (807,811) phospho-MEK1/2, MEK1/2, phospho-Erk1/2 and ERK1/2 were supplied by Cell Signaling (Danvers, Mass.).
U937 cells were serum starved for 48 hours and subsequently serum stimulated for 2 hours in the presence or absence of 20 μM of the compounds.

T1 sequence (P04049 1-149 limits assumed): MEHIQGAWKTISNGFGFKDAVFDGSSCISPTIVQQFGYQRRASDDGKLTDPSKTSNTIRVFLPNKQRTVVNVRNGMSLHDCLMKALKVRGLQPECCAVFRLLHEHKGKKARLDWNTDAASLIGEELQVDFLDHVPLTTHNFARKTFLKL
T1 sequence (P06400 whole entry): as the sequence (P06400 whole entry) above
binding of Raf-1 to GST Rb beads, sequence (P06400 whole entry): as above
binding of Raf-1 to GST Rb beads, sequence (P04049 whole entry): as the sequence (P04049 whole entry) above
T2 sequence (P06400 whole entry): as the sequence (P06400 whole entry) above
T2 sequence (Q01094 whole entry): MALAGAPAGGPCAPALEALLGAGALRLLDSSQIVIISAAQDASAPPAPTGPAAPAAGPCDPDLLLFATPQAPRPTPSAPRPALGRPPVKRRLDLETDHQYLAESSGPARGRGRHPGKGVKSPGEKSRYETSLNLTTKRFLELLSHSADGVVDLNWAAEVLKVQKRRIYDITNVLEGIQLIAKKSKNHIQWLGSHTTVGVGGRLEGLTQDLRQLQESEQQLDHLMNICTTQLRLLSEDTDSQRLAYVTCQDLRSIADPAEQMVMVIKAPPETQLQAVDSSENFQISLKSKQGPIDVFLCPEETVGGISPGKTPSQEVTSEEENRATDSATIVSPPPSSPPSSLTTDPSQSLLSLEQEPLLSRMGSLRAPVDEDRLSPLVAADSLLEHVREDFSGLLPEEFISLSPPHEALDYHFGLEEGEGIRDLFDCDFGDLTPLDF

Question: Which results are given for N=C(N)SCc1ccc(Cl)c2ccccc12 [(2), (4-chloronaphthalen-1-yl)methyl carbamimidothioate]?
Answer: IC50 ([1]; IC50 (nM), inhibition of the Rb:Raf-1 binding, concentration that inhibits the Rb:Raf-1 binding by 50%, triplicate): 283 ± 46 nM; inhibition at 20 µM ([1]; read-out: % Inhibition at 20 μM, inhibition of Rb:Raf-1 binding, compound at 20 μM): 95%; inhibition of Rb-E2F1 binding / selectivity in words [2]: selective for inhibiting Rb:Raf-1 and not Rb-E2F1 binding; angiogenic tubule formation in matrigel [3]: inhibit angiogenic tubule formation; also recorded: significantly inhibited the angiogenic tubule formation; binding of Raf-1 to GST Rb beads [4]: inhibited the binding of GST Rb beads to endogenous Raf-1; binding of Raf-1 to Rb in intact cells [5]: inhibited the binding of Raf-1 to Rb significantly
